Laboratory results from patent US20100093532A1, “Pesticidal Mixtures Comprising Phenylsemicarbazone and Clothianidin” (BASF SE, priority 2007, published 2010).

System: Mediterranean fruitfly (Ceratitis capitata)
Assay: Control of Mediterranean fruitfly, egg and larval mortality in 96-well microtiter plates with insect diet
Assay type: in vivo
Conditions: sprayed onto insect diet with C. capitata eggs, 5 days at 28±1° C., 80±5% RH, egg and larval mortality visually assessed
Protocol: For evaluating control of Mediterranean fruitfly (Ceratitis capitata) the test unit consisted of 96-well-microtiter plates containing an insect diet and 50-80 C. capitata eggs. The compounds or mixtures were formulated using a solution containing 75% water and 25% DMSO. Different concentrations of formulated compounds or mixtures were sprayed onto the insect diet at 5 μl, using a custom built micro atomizer, at two replications.
For experimental mixtures in these tests identical volumes of both mixing partners at the desired concentrations respectively, were mixed together.
After application, microtiter plates were incubated at 28±1° C., 80±5% RH (relative humidity) for 5 days. Egg and larval mortality was then visually assessed.

Row | SMILES | Average Control (%) (Clothianidin 2 ppm) | Average Control (%) (Metaflumizone 20 ppm)
1 | CN/C(=N\[N+](=O)[O-])NCc1cnc(Cl)s1 [Clothianidin, (E)-1-(2-chloro-1,3-thiazol-5-ylmethyl)-3-methyl-2-nitroguanidine] | 0 | 
2 | N#Cc1ccc(CC(=NNC(=O)Nc2ccc(OC(F)(F)F)cc2)c2cccc(C(F)(F)F)c2)cc1 (racemic) [Metaflumizone, 2-[2-(4-cyanophenyl)-1-[3-(trifluoromethyl)phenyl]ethylidene]-N-[4-(trifluoromethoxy)phenyl]hydrazinecarboxamide] |  | 0
